Results from patent publication US20070155823A1, “USE OF BENZO-FUSED HETEROCYCLE SULFAMIDE DERIVATIVES AS NEUROPROTECTIVE AGENTS” (priority 2005, published 2007).
Values joined by “and” are separate entries in the source; they are usually repeats but may differ in a detail not shown here. Equal entries are not always repeated. One block for each molecule: values may come before it.

Tests used:
[1] = test system: Rat Hippocampal Cultures; experiment: Cell Titer Glow/Cell Viability in vitro assay, rat hippocampal cultures, insult with 150 μM H2O2; format: cell-based; conditions: for Cell viability (Cell Titer Glow), single plate / Cell viability (Cell Titer Glow), Mean: rat hippocampal cultures, 150 μM H2O2 insult; for Cell viability (Cell Titer Glow), single plate: individual plates (each in triplicate), vehicle 0.5-0.6; for Cell viability (Cell Titer Glow), Mean: mean of 3 plates (n=9), vehicle mean 0.5
Description: (§1) Cell Titer Glow/Cell Viability In Vitro Assay
(§2) The assay was run according to the procedure listed within the insert of the kit purchased from Promega (see attachment at the end of the application).
(§3) Cell Cultures were prepared as follows. Dissociated hippocampal and cortical cell cultures were established from embryonic day 18 rat fetuses. The fetuses were removed via cesarean section from pregnant dams (Harlan Sprague-Dawley) anesthetized with halothane according to the AVMA Panel on Euthanasia. Pups were decapitated and the brains were removed and placed in Hank's Balanced Salt solution (1×HBSS; Gibco, Rockville, Md.). The hippocampi and cortices were dissected out and pooled according to tissue-type. Tissue was trypsinized for 15 min (1 mg/ml trypsin-HBSS; Worthington, Lakewood, N.J.), rinsed with fresh HBSS, incubated in trypsin inhibitor (1 mg/ml; Sigma, St. Louis, Mo.) for 5 min, rinsed again with fresh HBSS and then triturated in 1 ml fresh HBSS with a fire-polished glass pipette. Dissociated cells were seeded at 10,000 cells/well onto poly-D-lysine coated 96-well plates (BD BioScience, Bedford, Ma.) containing 100 ul/well Eagle's Minimal Essential Media (MEM; Gibco) supplemented with 26 mM NaHCO3 (Sigma), 40 mM glucose (Sigma), 20 mM KCl (Sigma), 1 mM sodium pyruvate (Sigma), 10% (v/v) heat-inactivated fetal bovine serum (Hyclone, Logan, Utah), and 0.001% gentamicin sulfate (Sigma) (pH 7.4). Serum-free cultures were plated and maintained in Neurobasal medium+B27 supplement (Gibco). Cells were allowed to attach for 24 h in a humidified 37° C. 5% CO2 incubator before experimental treatment.
(§4) Test compounds were prepared as follows: A 10 mM stock in DMSO of each compound was diluted 1:50 in DPBS rendering a final stock of 200 μM. […] Equal amounts of vehicle or diluted compound were added to each culture well.
(§5) A 30% stock solution of hydrogen peroxide (H2O2; Sigma) was diluted with DPBS 1:100 to yield a […] stock. Five microliters of vehicle or H2O2 stock solution was added to each 100 ul culture well to yield a final concentration of 150 uM.
(§6) Note that in the data listed below, each plate was run in triplicate for a total of n=9.

[2] = test system: Rat Cerebral Cortical Cultures; experiment: Cell Titer Glow/Cell Viability in vitro assay, rat cerebral cortical cultures, insult with 150 μM H2O2; format: cell-based; conditions: 150 μM H2O2 insult; for Cell viability (Cell Titer Glow), single plate: individual plates (each in triplicate), vehicle 0.8-1.2; for Cell viability (Cell Titer Glow), Mean: mean of 3 plates (n=9)
Description: as §1, §2, §3, §4, §5, §6

SMILES: NS(=O)(=O)NC[C@H]1COc2cc(Cl)ccc2O1 [Compound #8, (2S)-(−)-N-(6-Chloro-2,3-dihydro-benzo[1,4]dioxin-2-ylmethyl)-sulfamide]
Cell viability (Cell Titer Glow), single plate ([1]; compound 0.1 μM): 24 (2×) and 26
Cell viability (Cell Titer Glow), Mean ([1]; compound 0.1 μM, SD 1, **p < 0.01): 25**
Cell viability (Cell Titer Glow), single plate ([1]; compound 1 μM): 16 and 17 (2×)
Cell viability (Cell Titer Glow), Mean ([1]; compound 1 μM, SD 0.6): 17
Cell viability (Cell Titer Glow), single plate ([1]; compound 10 μM): 10 and 14 and 15
Cell viability (Cell Titer Glow), Mean ([1]; compound 10 μM, SD 3): 13
Protection of neurons from death and/or damage from oxidative stress or oxidative injury ([1]; summary in words of Tables 4 and 5 (rat hippocampal and cerebral cortical cultures, 150 μM H2O2)): effective at protecting neurons from death and/or damage from oxidative stress or oxidative injury
Cell viability (Cell Titer Glow), single plate ([2]; compound 0.1 μM): 28 and 64 and 97
Cell viability (Cell Titer Glow), Mean ([2]; compound 0.1 μM, SD 35, vehicle mean 1, *p < 0.05): 63*
Cell viability (Cell Titer Glow), single plate ([2]; compound 1 μM): 19 and 51 and 38
Cell viability (Cell Titer Glow), Mean ([2]; compound 1 μM, SD 16, vehicle mean 1): 36
Cell viability (Cell Titer Glow), single plate ([2]; compound 10 μM): 10 and 18 and 51
Cell viability (Cell Titer Glow), Mean ([2]; compound 10 μM, SD 22, vehicle mean 1): 26

melting point: 100 to 101 °C
SMILES: NS(=O)(=O)NCC1CCc2ccccc2O1 (centres unmarked) [Compound #10, Chroman-2-ylmethylsulfamide]
